Reference: ChEMBL document CHEMBL1124667 (1989)

Legend:
[1] = test system: MCF7; assay: Growth inhibitory activity against MCF-7 human breast tumor cell line at a concentration of 10e-7 M in vitro.; type: functional; parameters: scale not given: the % may be the effect or the level left
[2] = test system: MCF7; assay: Growth inhibitory activity against MCF-7 human breast tumor cell line at a concentration of 10e-6 M in vitro.; type: functional; parameters: scale not given: the % may be the effect or the level left
[3] = test system: MCF7; assay: Growth inhibitory activity against MCF-7 human breast tumor cell line at a concentration of 10e-8 M in vitro.; type: functional; parameters: scale not given: the % may be the effect or the level left
[4] = target: Estrogen receptor (Homo sapiens) (UniProt Q92731+P03372); assay: Relative binding affinity against estrogen receptors in MCF-7 whole cells; type: cell-based; conditions: MCF7

Row | Structure (SMILES) | Activity [1] [%] | Activity [2] [%] | Activity [3] [%] | relative binding affinity (RBA) [4]
1 | CC/C(=C(/c1ccc(OCCN(C)C)cc1)c1cccc(I)c1)c1ccccc1 | 68 | 27 | 100 | 
2 | CC/C(=C(/c1ccc(OCCN(C)C)cc1)c1ccc([S+](C)[O-])cc1)c1ccccc1 (centres undefined) | 237 | 238 | 177 | 
3 | CC/C(=C(\c1ccc(I)cc1)c1ccc(OCCN(CC)CC)cc1)c1ccccc1 | 35 | 23 | 101 | 
4 | CCC(=C(c1ccc(O)cc1)c1ccc(OCCN(C)C)cc1)c1ccccc1 | 38 | 15 | 48 | 
5 | CC/C(=C(\c1ccccc1)c1ccc(OCCN(C)C)cc1)c1ccccc1 [TAMOXIFEN] | 100 | 70 | 119 | 
6 | CC/C(=C(\c1ccc(S)cc1)c1ccc(OCCN(C)C)cc1)c1ccccc1 | 110 | 147 | 94 | 
7 | CC/C(=C(/c1ccccc1)c1ccc(OCCN(C)C)cc1)c1ccccc1 | 140 | 137 | 135 | 
8 | CC/C(=C(\c1ccc(OCCN(C)C)cc1)c1ccc([S+](C)[O-])cc1)c1ccccc1 (centres undefined) | 135 | 67 | 112 | 
9 | CC/C(=C(\c1ccc(Cl)cc1)c1ccc(OCCN(C)C)cc1)c1ccccc1 | 119 | 56 | 116 | 
10 | CC/C(=C(\c1ccc(OCCN(C)C)cc1)c1ccc(S(C)(=O)=O)cc1)c1ccccc1 | 114 | 140 | 88 | 
11 | CC/C(=C(/c1ccc(OCCN(C)C)cc1)c1ccc(SC)cc1)c1ccccc1 | 66 | 54 | 154 | 
12 | CC/C(=C(\c1ccc(I)cc1)c1ccc(OCCN(C)C)cc1)c1ccccc1 | 42 | 26 | 115 | 
13 | CC/C(=C(\c1ccc(OCCN(C)C)cc1)c1ccc(SC)cc1)c1ccccc1 | 117 | 69 | 102 | 
14 | CC/C(=C(/c1ccc(Br)cc1)c1ccc(OCCN(C)C)cc1)c1ccccc1 | 163 | 174 | 110 | 
15 | CC/C(=C(/c1ccc(I)cc1)c1ccc(OCCN(C)C)cc1)c1ccccc1 | 126 | 120 | 99 | 
16 | CC/C(=C(\c1ccc(C=O)cc1)c1ccc(OCCN(C)C)cc1)c1ccccc1 | 38 | 42 | 62 | 
17 | CC/C(=C(/c1ccc(OCCN(C)C)cc1)c1ccc(S(C)(=O)=O)cc1)c1ccccc1 | 75 | 29 | 125 | 
18 | CC/C(=C(\c1ccc(Br)cc1)c1ccc(OCCN(C)C)cc1)c1ccccc1 | 101 | 63 | 130 | 
19 | CC/C(=C(\c1ccc(CO)cc1)c1ccc(OCCN(C)C)cc1)c1ccccc1 | 145 | 150 | 164 | 1.5
20 | CC/C(=C(/c1ccc(OCCN(C)C)cc1)c1ccc(C2CO2)cc1)c1ccccc1 (centres undefined) | 42 | 19 | 113 | 
21 | CC/C(=C(\c1ccc(I)cc1)c1ccc(OCCN2CCCC2)cc1)c1ccccc1 [IDOXIFENE] | 27 | 20 | 84 | 
